Experiments:
[1] = ABTS+ radical scavenging assay; conditions: for IC50: half-maximal inhibitory concentration to ABTS+ radical, means ± SD (n = 3); for ABTS+ Inhibition Ratio (%): at a concentration of 500 μM;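 as to all read-outs here: ABTS+ radical solution incubated with compound in EtOH in 96-well plates for 6–8 min in the dark at room temperature, versus blank control, trolox as reference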
Procedure: (§1) The DPPH assay was conducted as follows: the tested compound (final concentration: 0.2–1000 μM in EtOH, 100 μL) and DPPH solution (200 μM in EtOH, 100 μL) were sequentially added to 96-well plates at room temperature, then hid from the light for 15 min. The blank control and positive control (ascorbic acid) were set simultaneously. OD values at 517 nm were detected with a microplate reader. ABTS^+ assay was carried out as follows: firstly, the ABTS^+ solution was prepared using the procedure in our previous paper [19]. Then, the tested compound (final concentration: 0.2–1000 μM in EtOH, 10 μL) and ABTS^+ solution (200 μL) were added to 96-well plates at room temperature in an orderly manner, and then hided from light for 6–8 min. The blank control and positive control (trolox) were set synchronously. OD values at 405 nm were then detected with a microplate reader. All the reactions were set up three replicates.

[2] = DPPH radical scavenging assay; conditions: for IC50: half-maximal inhibitory concentration to DPPH radical, means ± SD (n = 3); for DPPH Inhibition Ratio (%): at a concentration of 500 μM;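 as to all read-outs here: compounds in EtOH mixed 1:1 with 200 µM DPPH in EtOH in 96-well plates, kept dark 15 min at room temperature, with blank control and ascorbic acid as reference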
Procedure: as §1

α-glucosidase = experiment: α-Glucosidase inhibitory activity (PNPG substrate); type: biochemical; conditions: means ± SD (n = 3)
Procedure: Initially, 96-well plates with the following ingredients were added in a proper order: testing compound (50 μM), α-glucosidase solution (0.025 U/mL), buffer, and the zymolyte (1 mM), and kept at 37 °C for 50 min. […] All the reactions were set up with three replicates. OD values at 405 nm were recorded with a microplate reader.

Cc1c(C)c2c(c(C)c1O)CCC(C)(C(=O)O)O2 (centres unmarked) [Trolox, trolox, reference compound]
IC50 [1]: 405 ± 6.2 µM

C[C@@H]1O[C@@H](Oc2c(-c3ccc(O)c(O)c3)oc3cc(O)cc(O)c3c2=O)[C@H](O[C@@H]2O[C@H](CO)[C@@H](O)[C@H](O)[C@H]2O)[C@H](O)[C@H]1O [Compound 17, quercetin 3-(2″-β-D-glucosyl)-α-L-rhamnopyranoside]
IC50 [1]: 480.9 ± 4.1 µM | IC50 [2]: 2620 ± 500 µM

O=C(/C=C/c1ccc(O)cc1)OC[C@H]1O[C@@H](Oc2c(-c3ccc(O)cc3)oc3cc(O)cc(O)c3c2=O)[C@H](O)[C@@H](O)[C@@H]1O [Compound 10, kaempferol 3-O-(6″-trans-p-coumaroyl)-β-D-glucopyranoside]
ABTS+ Inhibition Ratio (%) [1]: 11.55% | DPPH Inhibition Ratio (%) [2]: 6.28%

O=C(OC[C@H]1O[C@@H](OC(=O)c2cc(O)c(O)c(O)c2)[C@H](OC(=O)c2cc(O)c(O)c(O)c2)[C@@H](O)[C@@H]1O)c1cc(O)c(O)c(O)c1 [Compound 7, 1,2,6-tri-O-galloy-β-D-glucopyranose]
IC50 (α-glucosidase): 1.96 ± 0.05 µM | IC50 [1]: 128.4 ± 0.9 µM | IC50 [2]: 532 ± 38 µM

O=C(C=Cc1ccc(O)cc1)OC1CC(O)(C(=O)O)CC(O)C1O (centres unmarked) [Compound 26, 5-O-(E)-p-coumaroylquinic acid]
ABTS+ Inhibition Ratio (%) [1]: 6.82% | DPPH Inhibition Ratio (%) [2]: 6.92%

O=C1O[C@H]([C@@H](O)CO)C(O)=C1O [Ascorbic acid, ascorbic acid, reference compound]
IC50 [2]: 1200 ± 87.7 µM

C[C@@H]1O[C@@H](OC[C@H]2O[C@@H](Oc3c(-c4ccc(O)cc4)oc4cc(O)cc(O)c4c3=O)[C@H](O)[C@@H](O)[C@@H]2O)[C@H](O)[C@H](O)[C@H]1O [Compound 12, kaempferol 3-O-rutinoside]
ABTS+ Inhibition Ratio (%) [1]: 4.24% | DPPH Inhibition Ratio (%) [2]: 8.58%

C[C@@H]1O[C@@H](Oc2c(-c3ccc(O)cc3)oc3cc(O)cc(O)c3c2=O)[C@H](O)[C@H](O)[C@H]1O [Compound 15, kaempferol 3-O-α-L-rhamnopyranoside]
ABTS+ Inhibition Ratio (%) [1]: 8.00% | DPPH Inhibition Ratio (%) [2]: 1.04%

O=C(O)c1cc(O)c(O)c(O)c1 [Compound 19, gallic acid]
IC50 [1]: 202 ± 3.4 µM | IC50 [2]: 237 ± 22.6 µM

COC(=O)c1cc(O)c(O)c(O)c1 [Compound 23, methyl gallate]
IC50 [1]: 187 ± 2.7 µM | IC50 [2]: 299 ± 32.3 µM

C[C@@H]1O[C@@H](Oc2c(-c3ccc(O)cc3)oc3cc(O)cc(O)c3c2=O)[C@H](O[C@@H]2O[C@H](CO)[C@@H](O)[C@H](O)[C@H]2O)[C@H](O)[C@H]1O [Compound 18, kaempferol 3-(2″-β-D-glucosyl)-α-L-rhamnopyranoside]
ABTS+ Inhibition Ratio (%) [1]: 5.89% | DPPH Inhibition Ratio (%) [2]: 1.08%

O=C1O[C@@H](c2ccc(O)cc2)Cc2cc(O)cc(O)c21 [Compound 32, (3R)-thunberginol C]
IC50 [1]: 560.3 ± 3.3 µM | IC50 [2]: 3940 ± 825 µM

O=C(O)c1ccc(O)cc1 [Compound 21, p-hydroxybenzoic acid]
ABTS+ Inhibition Ratio (%) [1]: 3.21% | DPPH Inhibition Ratio (%) [2]: 3.32%

O=C(O[C@@H]1O[C@@H]2COC(=O)c3cc(O)c(O)c(O)c3-c3c(cc(O)c(O)c3O)C(=O)O[C@H]2[C@H](O)[C@H]1O)c1cc(O)c(O)c(O)c1 [Compound 4, 1-O-galloyl-4,6-O-(S)-hexahydroxydiphenoyl-β-D-glucopyranose]
IC50 (α-glucosidase): 1.96 ± 0.06 µM | IC50 [1]: 84.8 ± 0.4 µM | IC50 [2]: 312 ± 10.8 µM

O=C(O[C@H]1C(O)O[C@@H]2COC(=O)c3cc(O)c(O)c(O)c3-c3c(cc(O)c(O)c3O)C(=O)O[C@H]2[C@@H]1O)c1cc(O)c(O)c(O)c1 (stereo partly drawn) [Compound 3, 2-O-galloyl-4,6-O-(S)-hexahydroxydiphenoyl-β-D-glucopyranose]
IC50 (α-glucosidase): 1.74 ± 0.03 µM | IC50 [1]: 106 ± 0.5 µM | IC50 [2]: 941 ± 191 µM

O=C(O)/C=C\c1ccc(O[C@@H]2O[C@H](COC(=O)c3cc(O)c(O)c(O)c3)[C@@H](O)[C@H](O)[C@H]2O)cc1 [Compound 2, 4-O-(6′-O-galloyl-β-D-glucopyranosyl)-cis-p-coumaric acid]
IC50 [1]: 400 ± 9.6 µM | IC50 [2]: 502 ± 14 µM

O=C(OC[C@H]1O[C@@H](OC(=O)c2cc(O)c(O)c(O)c2)[C@H](O)[C@@H](O)[C@@H]1O)c1cc(O)c(O)c(O)c1 [Compound 6, 1,6-di-O-galloyl-β-D-glucopyranose]
IC50 [1]: 99.7 ± 1.4 µM | IC50 [2]: 217 ± 27.4 µM

1-(3′,4′-dihydroxycinnamoyl) cyclopentane-2,3-diol [Compound 30]
IC50 [1]: 307 ± 3.3 µM | IC50 [2]: 548 ± 61.5 µM

O=C(O)/C=C/c1ccc(O)cc1 [Compound 29, E-p-hydroxycinnamic acid]
ABTS+ Inhibition Ratio (%) [1]: 8.12% | DPPH Inhibition Ratio (%) [2]: 1.55%

O=c1c(O[C@@H]2O[C@H](CO)[C@@H](O)[C@H](O)[C@H]2O)c(-c2ccc(O)c(O)c2)oc2cc(O)cc(O)c12 [Compound 11, quercetin 3-O-β-D-glucopyranoside]
IC50 [1]: 322.8 ± 0.6 µM

O=C(O[C@@H]1O[C@@H]2COC(=O)c3cc(O)c(O)c4oc5c(O)c(O)cc(c5c34)C(=O)O[C@H]2[C@H](O)[C@H]1O)c1cc(O)c(O)c(O)c1 [Compound 1, 1-O-galloyl-4,6-tetrahydroxydibenzofurandicarboxyl-β-D-glucopyranose]
IC50 (α-glucosidase): 1.77 ± 0.05 µM | IC50 [1]: 111 ± 2.1 µM | IC50 [2]: 339 ± 24.7 µM

O=C(O)c1cccc(O)c1 [Compound 22, m-hydroxybenzoic acid]
ABTS+ Inhibition Ratio (%) [1]: 7.00% | DPPH Inhibition Ratio (%) [2]: 7.58%

O=c1c(O[C@@H]2O[C@H](CO)[C@@H](O)[C@H](O)[C@H]2O)c(-c2ccc(O)cc2)oc2cc(O)cc(O)c12 [Compound 9, kaempferol 3-O-β-D-glucopyranoside]
ABTS+ Inhibition Ratio (%) [1]: 0.19% | DPPH Inhibition Ratio (%) [2]: 0.97%

O=C(O[C@@H]1O[C@@H]2COC(=O)c3cc(O)c(O)c(O)c3-c3c(cc(O)c(O)c3O)C(=O)O[C@H]2[C@H](O)[C@H]1OC(=O)c1cc(O)c(O)c(O)c1)c1cc(O)c(O)c(O)c1 [Compound 5, 1,2-di-O-galloyl-4,6-O-(S)-hexahydroxydiphenoyl-β-D-glucopyranose]
IC50 (α-glucosidase): 0.67 ± 0.04 µM | IC50 [1]: 75.6 ± 2.1 µM | IC50 [2]: 301 ± 79.6 µM

O=C(O)/C=C/c1ccc(O)c(O)c1 [Compound 28, caffeic acid]
IC50 [1]: 199 ± 4.1 µM | IC50 [2]: 479 ± 33.8 µM

C[C@@H]1O[C@@H](OC[C@H]2O[C@@H](Oc3c(-c4ccc(O)c(O)c4)oc4cc(O)cc(O)c4c3=O)[C@H](O)[C@@H](O)[C@@H]2O)[C@H](O)[C@H](O)[C@H]1O [Compound 13, rutin]
IC50 [1]: 266 ± 5.4 µM | IC50 [2]: 900 ± 63.4 µM

O=C(/C=C/c1ccc(O)c(O)c1)O[C@@H]1CC(C(=O)O)=C[C@@H](O)[C@H]1O [Compound 27, 5-O-caffeoylshikimic acid]
IC50 [1]: 545 ± 12.8 µM | IC50 [2]: 722 ± 43.2 µM

O=C(OC[C@H]1O[C@@H](OC(=O)c2cc(O)c(O)c(O)c2)[C@H](O)[C@@H](O)[C@@H]1OC(=O)c1cc(O)c(O)c(O)c1)c1cc(O)c(O)c(O)c1 [Compound 8, 1,4,6-tri-O-galloyl-β-D-glucopyranose]
IC50 (α-glucosidase): 2.01 ± 0.02 µM | IC50 [1]: 77.2 ± 0.7 µM | IC50 [2]: 156 ± 26.1 µM

O=c1c(O[C@@H]2O[C@H](CO)[C@H](O)[C@H](O)[C@H]2O)c(-c2ccc(O)cc2)oc2cc(O)cc(O)c12 [Compound 14, kaempferol 3-O-β-D-galactopyranoside]
ABTS+ Inhibition Ratio (%) [1]: 4.03% | DPPH Inhibition Ratio (%) [2]: −0.94%

O=c1c(O)c(-c2ccc(O)c(O)c2)oc2cc(O)cc(O)c12 [Compound 16, quercetin]
IC50 [1]: 206 ± 2.6 µM | IC50 [2]: 1140 ± 207 µM

O=C(O)c1ccc(O)c(O)c1 [Compound 20, 3,4-dihydroxybenzoic acid]
IC50 [1]: 462 ± 9.3 µM | IC50 [2]: 2120 ± 336 µM
